# Results: patent US10874686B2, “Anthranilyl-adenosinemonosulfamate analogs and uses thereof” (Memorial Sloan-Kettering Cancer Center, priority 2015, dated 2020)
# Like-named read-outs stand apart in the source and are kept apart here.
# Columns and labels:
# [1] = tested on: pyocyanin production by P. aeruginosa strain PA14; assay: Pyocyanin production by P. aeruginosa strain PA14; type: cell-based, Pseudomonas aeruginosa; settings: 1 mM, 24 h
# Method: Production of pyocyanin by P. aeruginosa strain PA14 was performed in triplicate in roundbottom glass tubes containing 5-mL cultures in LB medium. Tubes tilted at ˜60° angle were incubated at 37° C. in an orbital shaker at 200 rpm. Cultures were inoculated with 15-h preculture in LB in order to obtain a starting OD600 nm=0.05, with or without inhibitors added. At 24 h, 1 mL of each culture was thoroughly vortexed and centrifuged (12,000 g, 5 min). Next, 0.8 mL of the supernatant was removed and the OD690 nm was measured. The ratio of the absorbance compound-treated or MvfR^− cultures and untreated controls was calculated to provide the data in FIG. 7B.
# The ability of these PqsA inhibitors to block production of the virulence factor pyocyanin was investigated. […] See, e.g., Starkey et al. (2014) PLoS Pathog. 10, e1004321; Storz et al. (2012) J. Am. Chem. Soc. 134, 16143; Thomann et al. (2016) ACS Chem. Biol. 11, 1279. Haloanthranilate substrate analogues have been reported to inhibit both quinolone and pyocyanin production but may impact multiple targets in this complex signaling network. This is indicative of the complex relationship between HHQ and PQS quinolone biosynthesis, induction of the MvfR regulon, and production of pyocyanin.
# [2] = Pharmacokinetics in mice, plasma and lung; type: in vivo; settings: 10 mg/kg intraperitoneal
# Method: Twenty-four female mice were weighed and administered anthranilyl-AMS intraperitoneally at 10 mg/kg dose. The animals assigned for 24 hours sampling after dosing were kept in metabolic cages to collect urine and feces at an interval of 0 to 4, 4 to 8, and 8 to 24 hours. Approximately 60 μL of blood samples were collected from retro orbital plexus at 0.08, 0.25, 0.5, 1, 2, 4, 8, and 24 hours following i.p. administration. The blood samples were collected from three mice under light isoflurane anesthesia at each time point in labeled micro centrifuge tube containing K2EDTA solution. Blood samples were centrifuged at 4000 rpm for 10 minutes at 4±2° C. Immediately after plasma collection the animals were humanely euthanized by carbon dioxide asphyxiation, and lung samples were collected from each mouse at 0.08, 0.25, 0.5, 1, 2, 4, 8, and 24 hours. The tissue samples were then homogenized using ice-cold phosphate buffer saline (pH 7.4), and the total homogenate volume was three times of the tissue weight. The collected feces were weighed and homogenized with 9 volumes of ice-cold phosphate buffer saline (pH 7.4), and homogenates were stored below −70° C. until analysis. All samples were stored below −70° C. until sample analysis. The plasma and tissue samples were processed using protein precipitation with acetonitrile (ACN) and analyzed with fit for purpose LC-MS/MS method. Pharmacokinetic parameters were calculated using the non-compartmental analysis tool of Phoenix WinNonlin® (Version 6.3).
# MRC5 cells [3] = assay: Cytotoxicity cell viability assay (CellTiter Glo), MRC5; type: cell-based; settings: for IC50: Homo sapiens, MRC5, 48 hrs, luminescence; for toxicity in words, CellTiter Glo, MRC5: MRC5, luminescence readout, up to 1000 μM
# From the text: Promega Cell Titer-Glo utilizes the ATP dependent conversion of Luciferin to Oxyluciferin by a recombinant Luciferase in order to quantify the number of metabolically active cells in a sample. Quantification is possible because the number of RLU's detected is linearly proportional to the amount of ATP produced by metabolically active cells in culture at the time of lysis. Therefore, the relative cytotoxicity of each compound can be tested by quantifying the amount of ATP present in each microtiter well as compared to control groups. HepG2 and MRC5 were plated at a density of 1500 cells/25 al in well in the assay plate and allowed to settle overnight. 0.1 μL of compounds was then transferred from the source plate, into the cell assay plates. The cells were left to incubate with the compounds for 48 hrs, after which, 25 μL of Promega Cell Titer-Glo was added to each well, and allowed to incubate at room temperature with shaking for 20 minutes. RLU's for each well were then recorded on a BioTek Synergy NEO. DMSO was used as negative control
# MRC5 cells [4] = assay: Cell health and viability image-based study (fluorescence microscopy), MRC5; settings: for IC50: Homo sapiens, MRC5, imaging; for toxicity in words, imaging, MRC5: up to 1000 μM
# Method: (§1) The multiparametric assay developed surveys a number of elements of cell health simultaneously. Using a combination of 2 dyes, we are able to simultaneously measure nuclear morphology, membrane integrity and cell proliferation. All measurements are made on live cells after an incubation time of 24H. Hoechst 33342 is used to measure total number of cells, nuclear morphology and cell proliferation. The nuclear impermeable dye Syto17 is used to assess the nuclear membrane integrity by measuring the nuclear translocation of the dye when the membrane gets porous after incubation with a toxic compound. Cells were plated at a density of 1500 cells/25 al in well in a 384 wells plate the day before incubation with the drugs. The following day, 0.1 al of the source plate are added to the assay plate. Then, 25 al of a fluorophores mixture containing Hoechst 33342, Syto17 diluted in EMEM was added to each well. Plates are read after 48 h incubation in the ImageXpress instrument (Molecular Devices) using the appropriate filters. Images are analyzed using an application of MetaXpress software (Molecular Devices) and data are presented using Prism software. Low Signal Control (C23): 5 μM Staurosporine; High Signal Control (C24): DMSO.
# HepG2 cells = assay: Cell health and viability image-based study (fluorescence microscopy), HepG2; settings: for IC50: Homo sapiens, HepG2, imaging; for toxicity in words, imaging, HepG2: up to 1000 μM
# Method: as §1
# [5] = Hoechst 33342, read-out: Cell Count IC50, MRC5
# [6] = Syto17, read-out: Nuclear membrane integrity IC50, MRC5
# [7] = Hoechst 33342, read-out: Cell Count IC50, HepG2
# [8] = Syto17, read-out: Nuclear membrane integrity IC50, HepG2
Compound,inhibition of pyocyanin production [1],AUC lung ([2]; lung),Cmax lung ([2]; lung) [ng/mL],"half-life ([2]; female, mouse, ip, lung, read-out: T1/2 lung) [h]","AUC ([2]; female, mouse, ip, plasma) [ng·h/mL]","Cmax ([2]; female, mouse, ip, plasma) [ng/mL]","half-life ([2]; female, mouse, ip, plasma, read-out: T1/2 plasma) [h]","Kp ([2]; female, mouse, lung / plasma, ip, read-out: lung/plasma ratio)",IC50 (MRC5 cells [3]) [µM],"toxicity in words, CellTiter Glo, MRC5 (MRC5 cells [3])",IC50 (MRC5 cells [4]; [5]) [µM],IC50 (MRC5 cells [4]; [6]) [µM],"toxicity in words, imaging, MRC5 (MRC5 cells [4])",IC50 (HepG2 cells; [7]) [µM],IC50 (HepG2 cells; [8]) [µM],"toxicity in words, imaging, HepG2 (HepG2 cells)"
"Nc1ccccc1C(=O)NS(=O)(=O)OC[C@H]1O[C@@H](n2cnc3c(N)ncnc32)[C@H](O)[C@@H]1O [anthranilyl-AMS, Anthranilyl-AMS]",neither inhibited pyocyanin production,63.9 μg · min/mL or μg · min/g,2000 ± 300,2.17,5000,12100 ± 2900,1.06,0.21,10.6,significant toxicity in the tested range,21.5,25.5,significant toxicity in the tested range,5.9,12.1,significant toxicity in the tested range
"Nc1ccccc1C(=O)NS(=O)(=O)NC[C@H]1O[C@@H](n2cnc3c(N)ncnc32)[C@H](O)[C@@H]1O [anthranilyl-AMSN, Anthranilyl-AMSN]",neither inhibited pyocyanin production,,,,,,,,33.7,significant toxicity in the tested range,58.8,74.3,significant toxicity in the tested range,6,56.3,significant toxicity in the tested range
